Measured values reported in patent US8288421B2, “Phenylaminopyridines” (Basilea Pharmaceutica AG, priority 2004, dated 2012).

Legend:
MRC5 [1] = assay: Hoechst 33342 nuclear staining; assay type: cell-based; conditions: MRC5, 48 h read-out
Procedure: (§1) This assay is performed in 96 well tissue culture plates. Appropriate number of cells (adherent cells: 3-5*10^3, suspension cells: 8-10*10^3) are being seeded out in 80 μl complete medium. Adherent cells are incubated for 24 h for proper spreading out before addition of test compounds while suspension cells are immediately treated with test compounds after seeding out. The test compounds are added in 20 μl complete medium containing max 5% DMSO. The final compound concentrations in the assays are in the range of 0.001 μM-10 μM. […] The assay plates are then further incubated for 30 minutes and subsequently analyzed with a standard inverted fluorescence microscope.
(§2) The readout allows the determination of the fraction of apoptotic nuclei as well as other morphological criteria specific for apoptosis as a function of the treatment. The scores A, B, C and D are explained at the end of the Table.

Jily [2] = assay: Hoechst 33342 nuclear staining; assay type: cell-based; conditions: 48 h read-out
Procedure: as §1, §2

PBL [3] = assay: Mitochondrial membrane potential (JC-1); assay type: cell-based, human; conditions: 48 h read-out
Procedure: as §1, with “20 μal” for “20 μl”, “DMSO.” for “DMSO. The final compound concentrations in the assays are in the range of 0.001 μM-10 μM.”, “fluorescence microscope by using the FITC and TRITC filters.” for “fluorescence microscope.”
(§3) The scores A, B, C and D are explained at the end of the Table.

MCF7 = assay: Mitochondrial membrane potential (JC-1); assay type: cell-based, human; conditions: MCF7, 48 h read-out
Procedure: as §1, with “20 μal” for “20 μl”, “DMSO.” for “DMSO. The final compound concentrations in the assays are in the range of 0.001 μM-10 μM.”, “fluorescence microscope by using the FITC and TRITC filters.” for “fluorescence microscope.”
as §3

Jurkat [4] = assay: Mitochondrial membrane potential (JC-1); assay type: cell-based, human; conditions: 48 h read-out
Procedure: as §1, with “20 μal” for “20 μl”, “DMSO.” for “DMSO. The final compound concentrations in the assays are in the range of 0.001 μM-10 μM.”, “fluorescence microscope by using the FITC and TRITC filters.” for “fluorescence microscope.”
as §3

HeLa [5] = assay: Mitochondrial membrane potential (JC-1); assay type: cell-based, human; conditions: 48 h read-out
Procedure: as §1, with “20 μal” for “20 μl”, “DMSO.” for “DMSO. The final compound concentrations in the assays are in the range of 0.001 μM-10 μM.”, “fluorescence microscope by using the FITC and TRITC filters.” for “fluorescence microscope.”
as §3

HT1080 = assay: MTS proliferation assay; assay type: cell-based, human; conditions: HT1080, 72 h read-out
Procedure: (§4) The assay is performed in 96 well tissue culture plates. The cells (range: 1.5*10^3-10^4) are seeded out in 80 μl complete medium 24 h prior to compound treatment. The test compounds are added in 20 μl complete medium containing max 5% DMSO. The final compound concentrations in the assays are in the range of 0.001 μM-10 μM. The assay plates are incubated for 72 h at culture conditions. The MTS reagent is prepared according to the manufacturer's protocol (Promega G1111). 20 μl MTS reagent are added to each well, the assay plates are quickly spun and incubated for another 3 h at culture conditions. Subsequently, the plates are shortly shaked and absorption measured with a microplate-reader at 492 nm. The scores A, B, C and D are explained at the end of the Table.

Jurkat [6] = assay: MTS proliferation assay; assay type: cell-based, human; conditions: 72 h read-out
Procedure: as §4

HeLa [7] = assay: MTS proliferation assay; assay type: cell-based, human; conditions: 72 h read-out
Procedure: as §4

MRC5 [8] = assay: MTS proliferation assay; assay type: cell-based; conditions: MRC5, 72 h read-out
Procedure: as §4

Jily [9] = assay: MTS proliferation assay; assay type: cell-based; conditions: 72 h read-out
Procedure: as §4

PBL [10] = assay: Hoechst 33342 nuclear staining; assay type: cell-based, human; conditions: 48 h read-out
Procedure: as §1, §2

Jurkat [11] = assay: Hoechst 33342 nuclear staining; assay type: cell-based, human; conditions: 48 h read-out
Procedure: as §1, §2

HeLa [12] = assay: Hoechst 33342 nuclear staining; assay type: cell-based, human; conditions: 48 h read-out
Procedure: as §1, §2

DOHH2 = assay: Mitochondrial membrane potential (JC-1); assay type: cell-based; conditions: DOHH2, 48 h read-out
Procedure: as §1, with “20 μal” for “20 μl”, “DMSO.” for “DMSO. The final compound concentrations in the assays are in the range of 0.001 μM-10 μM.”, “fluorescence microscope by using the FITC and TRITC filters.” for “fluorescence microscope.”
as §3

Compound | EC50 (MRC5 [1]) | EC50 (Jily [2]) | EC50 (PBL [3]) | EC50 (MCF7) | EC50 (Jurkat [4]) | EC50 (HeLa [5]) | IC50 (HT1080) | IC50 (Jurkat [6]) | IC50 (HeLa [7]) | IC50 (MRC5 [8]) | IC50 (Jily [9]) | EC50 (PBL [10]) | EC50 (Jurkat [11]) | EC50 (HeLa [12]) | EC50 (DOHH2)
CCOc1ccccc1C(=O)Nc1cccc(-c2cncc(Nc3ccc(OC)cc3)c2)c1 [Example 10] | > 1000 nM | 100 to 1000 nM | > 1000 nM | 100 to 1000 nM | 10 to 100 nM | 100 to 1000 nM | 10 to 100 nM | 10 to 100 nM | 100 to 1000 nM | 100 to 1000 nM | 10 to 100 nM | > 1000 nM | 10 to 100 nM | 10 to 100 nM | 100 to 1000 nM
O=C(Nc1cccc(-c2cncc(Nc3ccc(OCc4ccccc4)cc3)c2)c1)c1ccccc1 [Example 27] | > 1000 nM | > 1000 nM | > 1000 nM | > 1000 nM | > 1000 nM | > 1000 nM | > 1000 nM | > 1000 nM | > 1000 nM | > 1000 nM | > 1000 nM | > 1000 nM | > 1000 nM | > 1000 nM | > 1000 nM
COc1ccc(Nc2cncc(-c3cccc(NC(=O)C(C)C)c3)c2)cc1 [Example 26] | > 1000 nM | 100 to 1000 nM | > 1000 nM | > 1000 nM | 100 to 1000 nM | > 1000 nM | 100 to 1000 nM | 10 to 100 nM | 100 to 1000 nM | 100 to 1000 nM | 10 to 100 nM | > 1000 nM | 10 to 100 nM | 100 to 1000 nM | 100 to 1000 nM
COc1ccc(Nc2cncc(-c3cccc(NC(=O)c4cccnc4)c3)c2)cc1 [Example 13] | > 1000 nM | 100 to 1000 nM | > 1000 nM | > 1000 nM | 10 to 100 nM | 100 to 1000 nM | 100 to 1000 nM | 10 to 100 nM | 100 to 1000 nM | 100 to 1000 nM | 10 to 100 nM | > 1000 nM | 100 to 1000 nM | 100 to 1000 nM | 100 to 1000 nM
COc1ccc(Nc2cncc(-c3cccc(NC(=O)c4ccccc4)c3)c2)c(OC)c1 [Example 30] | > 1000 nM | 100 to 1000 nM | > 1000 nM | > 1000 nM | > 1000 nM | > 1000 nM | > 1000 nM | 100 to 1000 nM | > 1000 nM | > 1000 nM | 100 to 1000 nM | > 1000 nM | 100 to 1000 nM | > 1000 nM | > 1000 nM
COc1ccc(Nc2cncc(-c3cccc(NC(=O)c4cccs4)c3)c2)cc1 [Example 22] | 100 to 1000 nM | 10 to 100 nM | > 1000 nM | 100 to 1000 nM | 10 to 100 nM | 10 to 100 nM | 10 to 100 nM | 10 to 100 nM | 10 to 100 nM | 100 to 1000 nM | 10 to 100 nM | > 1000 nM | 10 to 100 nM | 10 to 100 nM | 10 to 100 nM
COc1ccc(Nc2cncc(-c3cccc(NC(=O)c4ccccn4)c3)c2)cc1 [Example 17] | > 1000 nM | 10 to 100 nM | > 1000 nM | > 1000 nM | 10 to 100 nM | 10 to 100 nM | 10 to 100 nM | < 10 nM | 10 to 100 nM | 10 to 100 nM | 10 to 100 nM | > 1000 nM | 100 to 1000 nM | 10 to 100 nM | 10 to 100 nM
COc1ccc(Nc2cncc(-c3cccc(NC(=O)c4ccccc4)c3)c2)cc1OC [Example 29] | > 1000 nM | 100 to 1000 nM | > 1000 nM | > 1000 nM | 100 to 1000 nM | > 1000 nM | > 1000 nM | 100 to 1000 nM | > 1000 nM | > 1000 nM | 100 to 1000 nM | > 1000 nM | 100 to 1000 nM | 100 to 1000 nM | > 1000 nM
COc1ccc(Nc2cncc(-c3cccc(NC(=O)Cc4ccccc4)c3)c2)cc1 [Example 15] | > 1000 nM | 100 to 1000 nM | > 1000 nM | > 1000 nM | 10 to 100 nM | 100 to 1000 nM | 100 to 1000 nM | 100 to 1000 nM | 100 to 1000 nM | 100 to 1000 nM | 100 to 1000 nM | > 1000 nM | 100 to 1000 nM | 100 to 1000 nM | 100 to 1000 nM
COc1ccc(Nc2cncc(-c3cccc(NC(=O)c4ccco4)c3)c2)cc1 [Example 14] | 100 to 1000 nM | 10 to 100 nM | > 1000 nM | > 1000 nM | 10 to 100 nM | 100 to 1000 nM | 100 to 1000 nM | 10 to 100 nM | 100 to 1000 nM | 100 to 1000 nM | 10 to 100 nM | > 1000 nM | 10 to 100 nM | 100 to 1000 nM | 10 to 100 nM
COCC(=O)Nc1cccc(-c2cncc(Nc3ccc(OC)cc3)c2)c1 [Example 41] | > 1000 nM | 100 to 1000 nM | 100 to 1000 nM | 100 to 1000 nM | 100 to 1000 nM | 100 to 1000 nM | – | – | – | – | – | 100 to 1000 nM | 100 to 1000 nM | 100 to 1000 nM | 100 to 1000 nM
COc1ccc(Nc2cncc(-c3cccc(NC(=O)c4ccc(OC)cc4)c3)c2)cc1 [Example 9] | – | – | > 1000 nM | 100 to 1000 nM | 10 to 100 nM | 100 to 1000 nM | 100 to 1000 nM | 100 to 1000 nM | 100 to 1000 nM | > 1000 nM | 100 to 1000 nM | – | – | – | 10 to 100 nM
